System: PANC-1 complex spheroid growth, percent test/control
Experiment: Anticancer human tumor PANC-1 cell line growth inhibition [Asc];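 further: spheroids exposed to agents for 7 days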;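 on viability, T/C: percent viability relative to DMSO vehicle wells taken as 100%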
Conditions: for IC50: curve of first compound; for viability, T/C: stronger effect = lower value
How it was run: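 Complex spheroids combining tumor cells with HUVEC endothelial cells and human MSCs, at 37 degrees C, 5% CO2; agents tested alone or combined, half-log dilutions from at or near clinical Cmax, or 10 microM if Cmax unknown.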

[1] = second compound 0.0316 µM, first compound 0.0316 µM
[2] = second compound 0.0316 µM, first compound 0.1 µM
[3] = second compound 0.0316 µM, first compound 0.316 µM
[4] = second compound 0.0316 µM, first compound 1 µM
[5] = second compound 0.1 µM, first compound 0.0316 µM
[6] = second compound 0.1 µM, first compound 0.1 µM
[7] = second compound 0.1 µM, first compound 0.316 µM
[8] = second compound 0.1 µM, first compound 1 µM
[9] = second compound 0.316 µM, first compound 0.0316 µM
[10] = second compound 0.316 µM, first compound 0.1 µM
[11] = second compound 0.316 µM, first compound 0.316 µM
[12] = second compound 0.316 µM, first compound 1 µM
[13] = second compound 1 µM, first compound 0.0316 µM
[14] = second compound 1 µM, first compound 0.1 µM
[15] = second compound 1 µM, first compound 0.316 µM
[16] = second compound 1 µM, first compound 1 µM

Compound `O=C(c1ccc(F)c(F)c1Nc1ccc(I)cc1F)N1CC(O)([C@@H]2CCCCN2)C1` + Cc1c(S(C)(=O)=O)c(-c2cc(F)cc(N3CCN(c4ccc(NS(=O)(=O)c5ccc(NC(CCN6CCC(C(=O)OCCCP(=O)(O)O)CC6)CSc6ccccc6)c(S(=O)(=O)C(F)(F)F)c5)cc4)CC3)c2)c(-c2ccc(Cl)cc2)n1C(C)C has an IC50 (second compound 0.0316 µM) of over 1 µM, an IC50 (second compound 0.1 µM) of over 1 µM and an IC50 (second compound 0.316 µM) of over 1 µM. The IC50 (second compound 1 µM) was over 1 µM, the IC50 (second compound 3.16 µM) was over 1 µM and the IC50 (second compound 10 µM) was over 1 µM. It also gave a viability, T/C (second compound 0.0316 µM, first compound 0.00316 µM) of 82.4%, a viability, T/C (second compound 0.0316 µM, first compound 0.01 µM) of 88% and a viability, T/C [1] of 85.4%. It also gave a viability, T/C [2] of 86.8%, a viability, T/C [3] of 93% and a viability, T/C [4] of 89%. The viability, T/C (second compound 0.1 µM, first compound 0.00316 µM) was 96.5%, the viability, T/C (second compound 0.1 µM, first compound 0.01 µM) was 109% and the viability, T/C [5] was 96%. The viability, T/C [6] was 84.6%, the viability, T/C [7] was 91.8% and the viability, T/C [8] was 91.1%. It also gave a viability, T/C (second compound 0.316 µM, first compound 0.00316 µM) of 99.8%, a viability, T/C (second compound 0.316 µM, first compound 0.01 µM) of 93.5% and a viability, T/C [9] of 86.2%. The viability, T/C [10] was 89.6%, the viability, T/C [11] was 83.8% and the viability, T/C [12] was 84%. It also gave a viability, T/C (second compound 1 µM, first compound 0.00316 µM) of 89.9%, a viability, T/C (second compound 1 µM, first compound 0.01 µM) of 87.2% and a viability, T/C [13] of 88%. The viability, T/C [14] was 87.7%, the viability, T/C [15] was 94.8% and the viability, T/C [16] was 85%. It also gave a viability, T/C (second compound 3.16 µM, first compound 0.00316 µM) of 104%, a viability, T/C (second compound 3.16 µM, first compound 0.01 µM) of 97.1% and a viability, T/C (second compound 3.16 µM, first compound 0.0316 µM) of 89.3%. The viability, T/C (second compound 3.16 µM, first compound 0.1 µM) was 88.6%, the viability, T/C (second compound 3.16 µM, first compound 0.316 µM) was 83.3% and the viability, T/C (second compound 3.16 µM, first compound 1 µM) was 78.1%. It also gave a viability, T/C (second compound 10 µM, first compound 0.00316 µM) of 173%, a viability, T/C (second compound 10 µM, first compound 0.01 µM) of 175% and a viability, T/C (second compound 10 µM, first compound 0.0316 µM) of 157%. For the same compound, the viability, T/C (second compound 10 µM, first compound 0.1 µM) was 132%, the viability, T/C (second compound 10 µM, first compound 0.316 µM) was 142% and the viability, T/C (second compound 10 µM, first compound 1 µM) was 131%.
With `C=C(F)C(=O)N1CCN(c2nc(OCC3CCCN3C)nc3c2CCN(c2cccc4cccc(Cl)c24)C3)CC1CC#N` (centres undefined) + CNC(C)C(=O)NC1CN(S(=O)(=O)c2cccc(S(=O)(=O)N3CCC4CCC(C(=O)NC(c5ccccc5)c5ccccc5)N4C(=O)C(NC(=O)C(C)NC)C3)c2)CCC2CCC(C(=O)NC(c3ccccc3)c3ccccc3)N2C1=O the IC50 (second compound 0.00316 µM) was 5.52 µM, the IC50 (second compound 0.01 µM) was 5.29 µM and the IC50 (second compound 0.0316 µM) was 5.31 µM. It also gave an IC50 (second compound 0.1 µM) of 5.4 µM, an IC50 (second compound 0.316 µM) of 2.64 µM and an IC50 (second compound 1 µM) of 4.05 µM. For the same compound, the viability, T/C (second compound 0.00316 µM, first compound 0.0316 µM) was 99.5%, the viability, T/C (second compound 0.00316 µM, first compound 0.1 µM) was 99.1% and the viability, T/C (second compound 0.00316 µM, first compound 0.316 µM) was 101%. It also gave a viability, T/C (second compound 0.00316 µM, first compound 1 µM) of 92.4%, a viability, T/C (second compound 0.00316 µM, first compound 3.16 µM) of 91.6% and a viability, T/C (second compound 0.00316 µM, first compound 10 µM) of 5.56%. It also gave a viability, T/C (second compound 0.01 µM, first compound 0.0316 µM) of 95.6%, a viability, T/C (second compound 0.01 µM, first compound 0.1 µM) of 92.4% and a viability, T/C (second compound 0.01 µM, first compound 0.316 µM) of 92.4%. For the same compound, the viability, T/C (second compound 0.01 µM, first compound 1 µM) was 100%, the viability, T/C (second compound 0.01 µM, first compound 3.16 µM) was 85.1% and the viability, T/C (second compound 0.01 µM, first compound 10 µM) was 6.24%. The viability, T/C [1] was 88.1%, the viability, T/C [2] was 86.8% and the viability, T/C [3] was 107%. The viability, T/C [4] was 91.8%, the viability, T/C (second compound 0.0316 µM, first compound 3.16 µM) was 86.8% and the viability, T/C (second compound 0.0316 µM, first compound 10 µM) was 5.07%. The viability, T/C [5] was 90.5%, the viability, T/C [6] was 102% and the viability, T/C [7] was 90.3%. It also gave a viability, T/C [8] of 99.3%, a viability, T/C (second compound 0.1 µM, first compound 3.16 µM) of 87.6% and a viability, T/C (second compound 0.1 µM, first compound 10 µM) of 6.55%. The viability, T/C [9] was 89.2%, the viability, T/C [10] was 92.4% and the viability, T/C [11] was 96.2%. It also gave a viability, T/C [12] of 95.1%, a viability, T/C (second compound 0.316 µM, first compound 3.16 µM) of 41.9% and a viability, T/C (second compound 0.316 µM, first compound 10 µM) of 4.83%. The viability, T/C [13] was 84.8%, the viability, T/C [14] was 91.3% and the viability, T/C [15] was 93.4%. The viability, T/C [16] was 95.4%, the viability, T/C (second compound 1 µM, first compound 3.16 µM) was 63.1% and the viability, T/C (second compound 1 µM, first compound 10 µM) was 2.3%.

Source: PubChem BioAssay AID1963435 (Molecular Pharmacology Branch, DTP, NCI, 2024)
